Results taken from patent US4371537A, “Sulfur-substituted phenoxypyridines having antiviral activity” (The Dow Chemical Company, priority 1981, dated 1983).
Converted amounts (≈) assume the structure as drawn.

Columns and labels:
[1] = tested on: rhinovirus type 64 (RV-64); assay: Tissue culture testing, rhinovirus type 64 in HeLa cells; format: cell-based; settings: Enterovirus, 48 and 72 hours, NA = not active at the standard test conditions, read-out: RV-64: lowest concentration of the compound necessary to cause a 50 percent reduction in cytopathic effect
Method: (§1) Monolayered HeLa cells in 16 millimeter (mm) tissue culture dishes were treated with 1 ml of culture medium (Eagles medium supplemented with fetal calf serum) containing subject compound at an appropriate concentration or containing no compound at all. Culture media such as those described herein are more fully described in standard texts, as for example, Kuchler's Biochemical Methods in Cell Culture and Virology, Dowden, Hutchinson and Ross, Inc., Stroudsberg, PA (1977). Following treatment, cells were challenged with 0.05 ml of rhinovirus type 1A (RV-1A), rhinovirus type 2 (RV-2) or Coxsackie A21 virus (Cox A21) in culture medium. Some of the compounds were also tested against rhinovirus type 5 (RV-5), rhinovirus type 8 (RV-8) or rhinovirus type 64 (RV-64). Cell controls received no viruses.
(§2) ^2 Lowest concentration of the compound (μg/ml) necessary to cause

Cox A21 = assay: Single Oral Dose test in mice challenged IP with Cox A21; format: in vivo, Swiss male mice; settings: >3.84 significant (95% confidence level)
Method: In addition, some of the compounds were tested in animals utilizing the following procedure, hereinafter referred to as the "Single Oral Dose" test. Swiss male mice, 8-12 grams in weight were challenged intraperitoneally (IP) with 0.2 ml of a normally lethal dose, i.e., a virus dose sufficient to cause […].80-100% mortality in infected animals within 10 days of challenge of Cox A21, in phosphate buffered saline containing 1% heat inactivated fetal calf serum. Three hours later mice were treated orally (P.O.) with 0.2 ml of compound suspended in 0.5% hydroxypropyl methylcellulose (Methocel) or with 0.2 ml of 0.5% Methocel containing no compound. […] Mice were observed daily for 7-10 days post-challenge and deaths recorded. A modified Mantel-Haenzel combined chi-square procedure was used to determine significant difference between virus control and treated groups. Chi-square values greater than 3.84 are considered significant (95% confidence level) in this test.

[2] = Cytotoxicity in tissue culture testing (HeLa monolayers); format: cell-based; settings: human; HeLa cells; observed at 48 and 72 hours post-treatment; read-out: Cytotoxicity: concentration of the compound found to be toxic to the cell
Method: as §1
^1 Cytotoxicity figures represent the concentration of the compound, […]

rhinovirus type 2 (RV-2) = assay: Tissue culture testing, rhinovirus type 2 in HeLa cells; format: cell-based; settings: Enterovirus, 48 and 72 hours, NA = not active at the standard test conditions, read-out: RV-2: lowest concentration of the compound necessary to cause a 50 percent reduction in cytopathic effect
Method: as §1, §2

Coxsackie A21 virus = assay: Continuous Oral Feeding test in mice challenged IP with Coxsackie A21 virus; format: in vivo; settings: po, 0.06 % in diet, 240 h
Method: Some of the compounds were also tested in animals utilizing the following procedure, hereainafter referred to as the "Continuous Oral Feeding" test. Coxsackie A21 virus grown on HeLa cells was administered at a concentration that produces 80 to 100% deaths in mice weighing 8 to 12 grams within 10 days, when the mice are injected (IP) with 0.2 ml of virus preparation. Mice were placed on diets containing test compound dispersed in plain commercially available rodent mash chow at a concentration of 0.06% (weight percent) on day 0. On day 1 the mice were challenged with the virus preparation, 0.2 ml/mouse, (IP). Deaths in both control and experimental groups were recorded for the 10 days and the results analyzed by a chi-square (.chi.^2) test. Chi-square values greater than 3.84 indicate the compound is active (95% confidence level).

[3] = tested on: Coxsackie A21 virus (Cox A21); assay: Tissue culture testing, Coxsackie A21 virus in HeLa cells; format: cell-based; settings: 48 and 72 hours, NA = not active at the standard test conditions, read-out: Cox A21: lowest concentration of the compound necessary to cause a 50 percent reduction in cytopathic effect
Method: as §1, §2

[4] = tested on: rhinovirus type 1A (RV-1A); assay: Tissue culture testing, rhinovirus type 1A in HeLa cells; format: cell-based; settings: Enterovirus, 48 and 72 hours, NA = not active at the standard test conditions, read-out: RV-1A: lowest concentration of the compound necessary to cause a 50 percent reduction in cytopathic effect
Method: as §1, §2

[5] = 600 mg/kg P.O. 3 h after IP challenge

| SMILES | EC50 [1] [µg/mL] | Single Oral Dose X^2 (chi-square, deaths vs virus control) (Cox A21; 400 mg/kg P.O. 3 h after IP challenge) | MCC [2] [µg/mL] | EC50 (rhinovirus type 2 (RV-2)) [µg/mL] | Continuous Oral Feeding X^2 (chi-square, deaths vs control) (Coxsackie A21 virus) | EC50 [3] [µg/mL] | EC50 [4] [µg/mL] | Single Oral Dose X^2 (chi-square, deaths vs virus control) (Cox A21; [5]) |
| --- | --- | --- | --- | --- | --- | --- | --- | --- |
| CC(C)S(=O)(=O)c1ccc(Oc2ccc(Cl)c(Cl)c2)nc1 [Example 49, 2-(3,4-dichlorophenoxy)-5-((1-methylethyl)sulfonyl)pyridine] | 0.625 (≈ 1.81 µM) | 0.004 | 12.5 | 0.625 (≈ 1.81 µM) | 3.851 | 0.625 (≈ 1.81 µM) | < 0.312 | – |
| CCSc1ccc(Oc2ccc(Cl)c(Cl)c2)nc1 [Example 45, 2-(3,4-dichlorophenoxy)-5-(ethylthio)pyridine] | 5 (≈ 16.7 µM) | – | 12.5 | 2.5 (≈ 8.33 µM) | – | 3.12 (≈ 10.4 µM) | 2.5 (≈ 8.33 µM) | – |
| CS(=O)(=O)c1ccc(Oc2cccc(Br)c2)nc1 [Example 35, 2-(3-bromophenoxy)-5-(methylsulfonyl)pyridine] | 6.25 (≈ 19 µM) | – | > 100 | 12.5 (≈ 38.1 µM) | 0.197 | 50 (≈ 152 µM) | < 6.25 | 1.604 |
| CS(=O)(=O)c1cccc(Oc2ccc(C(=O)c3ccccc3)cc2)n1 [Example 68] | – | – | 12.5 | 6.25 (≈ 17.7 µM) | 0.680 | 6.25 (≈ 17.7 µM) | 6.25 (≈ 17.7 µM) | 0.362 |
| CSc1ccc(Oc2ccc(Cl)c(Cl)c2)nc1 [Example 38, 2-(3,4-dichlorophenoxy)-5-(methylthio)pyridine] | – | – | 25 | 2.5 (≈ 8.74 µM) | – | 2.5 (≈ 8.74 µM) | 1.25 (≈ 4.37 µM) | 25.233 |
| C[S+]([O-])c1ccc(Oc2ccc(Cl)c(Cl)c2)nc1 (centres unmarked) [Example 39, 2-(3,4-dichlorophenoxy)-5-(methylsulfinyl)pyridine] | 1.25 (≈ 4.14 µM) | – | 25 | 1.25 (≈ 4.14 µM) | – | 25 (≈ 82.7 µM) | 0.625 (≈ 2.07 µM) | – |
| CC[S+]([O-])c1ccc(Oc2ccc(Cl)c(Cl)c2)nc1 (centres unmarked) [Example 46, 2-(3,4-dichlorophenoxy)-5-(ethylsulfinyl)pyridine] | 5 (≈ 15.8 µM) | – | 12.5 | < 3.12 | – | 12.5 (≈ 39.5 µM) | < 3.12 | – |
| CS(=O)(=O)c1ccc(Oc2ccc(SC(F)(F)F)cc2)nc1 [Example 27, 5-(methylsulfonyl)-2-(4-((trifluoromethyl)thio)phenoxy)pyridine] | < 6.25 | – | ≥ 100 | < 6.25 | 29.753 | < 6.25 | 12.5 (≈ 35.8 µM) | 39.700 |
| CCCCCCS(=O)(=O)c1ccc(Oc2ccc(C(=O)c3ccccc3)cc2)nc1 [Example 55, (4-((5-(n-hexylsulfonyl)-2-pyridinyl)oxy)phenyl)phenylmethanone] | – | – | 12.5 | 12.5 (≈ 29.5 µM) | – | 3.12 (≈ 7.38 µM) | 3.12 (≈ 7.38 µM) | 0.190 |
| O=S(=O)(c1ccccc1)c1ccc(Oc2ccc(Br)cc2)nc1 [Example 61, 2-(4-bromophenoxy)-5-(phenylsulfonyl)pyridine] | – | – | 20 | 10 (≈ 25.6 µM) | 3.328 | 5 (≈ 12.8 µM) | 10 (≈ 25.6 µM) | 4.401 |
| O=S(=O)(Cc1ccccc1)c1ccc(Oc2ccc(Cl)c(Cl)c2)nc1 [Example 63, 2-(3,4-dichlorophenoxy)-5-((phenylmethyl)sulfonyl)pyridine] | – | – | 25 | 10 (≈ 25.4 µM) | 4.106 | 10 (≈ 25.4 µM) | 5 (≈ 12.7 µM) | 0.733 |
| O=S(=O)(Cc1ccccc1)c1ccc(Oc2ccc(Br)cc2)nc1 [Example 64, 2-(4-bromophenoxy)-5-((phenylmethyl)sulfonyl)pyridine] | – | – | ≥ 100 | 50 (≈ 124 µM) | 2.985 | – | – | 0.483 |
| CC(C)S(=O)(=O)c1ccc(Oc2ccc(Br)cc2)nc1 [Example 50, 2-(4-bromophenoxy)-5-((1-methylethyl)sulfonyl)pyridine] | 2.5 (≈ 7.02 µM) | – | 12.5 | 1.25 (≈ 3.51 µM) | 1.243 | 1.25 (≈ 3.51 µM) | 1.25 (≈ 3.51 µM) | 10.040 |
| CS(=O)(=O)c1cccc(Oc2ccc(Cc3ccccc3)cc2)n1 [Example 69, 2-(methylsulfonyl)-6-(4-(phenylmethyl)phenoxy)pyridine] | – | – | 5 | 2.5 (≈ 7.37 µM) | 0.776 | – | 0.625 (≈ 1.84 µM) | 3.510 |
| O=S(=O)(c1ccccc1)c1ccc(Oc2ccc(Cl)c(Cl)c2)nc1 [Example 60, 2-(3,4-dichlorophenoxy)-5-(phenylsulfonyl)pyridine] | – | – | ≥ 100 | 10 (≈ 26.3 µM) | 0.970 | 10 (≈ 26.3 µM) | 5 (≈ 13.1 µM) | 0.839 |
| CS(=O)(=O)c1ccc(Oc2cccc(C#N)c2)nc1 [Example 36, 3-((5-(methylsulfonyl)-2-pyridinyl)oxy)benzonitrile] | 50 (≈ 182 µM) | – | > 100 | 50 (≈ 182 µM) | 3.447 | 50 (≈ 182 µM) | 12.5 (≈ 45.6 µM) | 2.20 |
| CC(=O)c1ccc(Oc2ccc(S(=O)(=O)C3CCCCC3)cn2)cc1 [Example 56, 1-(4-((5-(cyclohexylsulfonyl)-2-pyridinyl)oxy)phenyl)ethanone] | – | – | 12.5 | ~12.5 (≈ 34.8 µM) | 0.019 | 3.12 (≈ 8.69 µM) | ~12.5 (≈ 34.8 µM) | – |
